Measured values: patent publication US8242159B2, “1,3-dihydro-5-isobenzofurancarbonitrile derivatives and pharmaceutical composition thereof for the treatment of premature ejaculation” (Dong-A Pharmaceutical. Co., Ltd, priority 2007, dated 2012)

Experiments:
5-HT2C receptor = molecular target: T1, 5-HT2C receptor (Homo sapiens, UniProt P28335); experiment: Radioligand competitive binding assay, [3H]Mesulergine; conditions: human-derived recombinant CHO-K1 cells
T1 construct: expressed in transfected cells; host or cells: CHO-K1 cells
T1 sequence (P28335 33-458): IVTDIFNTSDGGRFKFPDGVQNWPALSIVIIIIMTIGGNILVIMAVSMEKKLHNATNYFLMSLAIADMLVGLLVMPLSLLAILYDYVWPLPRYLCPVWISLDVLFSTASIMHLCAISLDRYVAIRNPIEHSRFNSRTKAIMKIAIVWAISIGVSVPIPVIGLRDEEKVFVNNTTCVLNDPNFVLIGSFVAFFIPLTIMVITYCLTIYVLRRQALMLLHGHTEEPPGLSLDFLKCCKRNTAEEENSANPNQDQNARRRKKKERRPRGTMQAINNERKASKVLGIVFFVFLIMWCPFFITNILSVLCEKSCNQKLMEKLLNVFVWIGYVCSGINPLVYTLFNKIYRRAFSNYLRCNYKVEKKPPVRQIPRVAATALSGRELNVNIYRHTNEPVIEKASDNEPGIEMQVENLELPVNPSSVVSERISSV
Description: (§1) In addition, ligand binding to 5HT1A, 5-HT1B and 5-HT2C receptors and 5-HT transporter was evaluated with human-derived recombinant CHO cells, Wistar rat-derived cerebral cortical cells, human-derived recombinant CHO-K1 cells, and human-derived recombinant HEK-293 cells. Each cell line was dosed with 10^−5 μM to 10^4 μM of the compounds of Examples 2, 35, 40 and 45, and then incubated with a radio-labeled ligand for competitive binding. Ligands used were […], [^125I]Cyanopindolol, [^3H]Mesulergine and [^3H]Paroxetine, respectively. The competitive binding assay was carried out in 50 mM Tris-HCl buffer at 25° C. or 37° C., for 60 to 90 min.

[1] = system: cellular uptake of serotonin; experiment: Cellular reuptake assay, [3H]serotonin; format: cell-based; conditions: Homo sapiens, HEK293, 10 min, HEK-293 cell line
Description: (§2) First, the effects of the present compounds on cellular uptake of dopamine, norepinephrine and serotonin were evaluated with human-derived CHO-1, MDCK and HEK-293 cell lines. Each cell line was dosed with 10^−5 μM to 10^4 μM of the compounds of Examples 2, 35, 40 and 45, and then incubated with [^3H]dopamine, [^3H]norepinephrine and [^3H]serotonin in buffer. After 10 min, the amount of each neurotransmitter taken up into cells was determined by counting radioactivity using a liquid scintillation counter (LSC).

5HT1A receptor = molecular target: T2, 5HT1A receptor (Homo sapiens, UniProt P08908); experiment: Radioligand competitive binding assay; conditions: human-derived recombinant CHO cells
T2 construct: expressed in transfected cells; host or cells: CHO cells
T2 sequence (P08908 1-422): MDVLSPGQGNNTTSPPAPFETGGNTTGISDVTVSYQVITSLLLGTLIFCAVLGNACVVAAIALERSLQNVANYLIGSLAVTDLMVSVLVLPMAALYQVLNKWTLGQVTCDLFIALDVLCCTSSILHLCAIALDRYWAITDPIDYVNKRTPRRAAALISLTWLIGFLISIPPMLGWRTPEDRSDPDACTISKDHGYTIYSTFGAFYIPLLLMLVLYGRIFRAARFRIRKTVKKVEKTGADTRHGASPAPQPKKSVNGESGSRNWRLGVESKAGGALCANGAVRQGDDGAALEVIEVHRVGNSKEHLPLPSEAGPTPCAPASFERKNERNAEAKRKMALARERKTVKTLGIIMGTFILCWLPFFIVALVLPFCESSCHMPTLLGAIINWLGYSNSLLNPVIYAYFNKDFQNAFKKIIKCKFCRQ
Description: as §1

Sprague-Dawley (SD) rats = experiment: Acute toxicity test, single dose, mortality; format: in vivo, rat
From the text: The present derivatives and citalopram were individually administered orally and intra-venously to SD rats at a single dose.

[2] = system: Salmonella typhimurium TA98, 100, 1535, 1537, E. coli WP2 uvrA; experiment: Mutagenicity test: Ames test; format: cell-based; conditions: 8, 40, 200, 1000, 2500, 5000 μg/plate, presence/absence of a metabolic activation system
Description: (§3) To evaluate the safety of the present derivatives, mutagenicity test was conducted. Ames test and chromosome aberration test were conducted with the examples 2, 35, 40 and 45.

[3] = system: cellular uptake of dopamine; experiment: Cellular reuptake assay, [3H]dopamine; format: cell-based; conditions: 10 min, CHO-1 cell line
Description: as §2

[4] = molecular target: hERG (human Ether-a-go-go Related Gene) (Homo sapiens, UniProt Q12809); experiment: Cardiotoxicity test, hERG assay (MDS Pharma)
Sequence of hERG (human Ether-a-go-go Related Gene) (Q12809 whole entry): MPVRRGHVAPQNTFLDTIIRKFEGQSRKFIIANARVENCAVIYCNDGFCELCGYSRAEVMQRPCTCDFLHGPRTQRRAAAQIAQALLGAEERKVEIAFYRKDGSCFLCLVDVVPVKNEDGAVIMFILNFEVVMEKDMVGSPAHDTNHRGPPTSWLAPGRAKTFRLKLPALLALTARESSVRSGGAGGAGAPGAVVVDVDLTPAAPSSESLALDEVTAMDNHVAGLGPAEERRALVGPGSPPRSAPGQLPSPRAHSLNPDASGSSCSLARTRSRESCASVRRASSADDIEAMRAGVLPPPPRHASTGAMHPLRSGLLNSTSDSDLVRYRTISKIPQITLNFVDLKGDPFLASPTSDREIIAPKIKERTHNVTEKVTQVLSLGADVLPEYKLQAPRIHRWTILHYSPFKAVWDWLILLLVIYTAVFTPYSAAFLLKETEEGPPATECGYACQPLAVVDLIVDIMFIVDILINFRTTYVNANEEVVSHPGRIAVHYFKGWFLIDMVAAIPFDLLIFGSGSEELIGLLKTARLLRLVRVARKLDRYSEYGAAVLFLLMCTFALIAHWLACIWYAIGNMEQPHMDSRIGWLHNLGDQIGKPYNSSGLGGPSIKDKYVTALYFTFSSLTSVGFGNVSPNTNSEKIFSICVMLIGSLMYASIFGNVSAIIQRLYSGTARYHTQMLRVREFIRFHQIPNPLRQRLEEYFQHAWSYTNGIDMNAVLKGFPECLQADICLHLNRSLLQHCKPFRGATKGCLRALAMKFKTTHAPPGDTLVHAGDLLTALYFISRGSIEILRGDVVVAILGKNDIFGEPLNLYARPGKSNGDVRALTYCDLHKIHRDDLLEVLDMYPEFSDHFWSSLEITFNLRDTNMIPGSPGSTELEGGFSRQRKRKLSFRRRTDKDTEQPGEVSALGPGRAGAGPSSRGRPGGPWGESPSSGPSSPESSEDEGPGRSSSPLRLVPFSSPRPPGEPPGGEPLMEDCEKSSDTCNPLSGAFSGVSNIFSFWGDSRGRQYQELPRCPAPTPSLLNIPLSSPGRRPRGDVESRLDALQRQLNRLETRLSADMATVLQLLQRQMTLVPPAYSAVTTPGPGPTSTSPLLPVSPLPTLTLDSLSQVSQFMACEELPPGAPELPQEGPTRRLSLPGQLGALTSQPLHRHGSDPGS
From the text: To evaluate the safety of the present derivatives in comparison with control drug, conducted was hERG (human Ether-a-go-go Related Gene) assay which is a representative test of safety medical test. This test was requested to trial institute MDS Pharma., which conducted this test.

5-HT transporter = molecular target: T3, 5-HT transporter (Homo sapiens, UniProt P31645); experiment: Radioligand competitive binding assay, [3H]Paroxetine; conditions: human-derived recombinant HEK-293 cells
T3 construct: expressed in transfected cells; host or cells: HEK-293 cells
T3 sequence (P31645 whole entry): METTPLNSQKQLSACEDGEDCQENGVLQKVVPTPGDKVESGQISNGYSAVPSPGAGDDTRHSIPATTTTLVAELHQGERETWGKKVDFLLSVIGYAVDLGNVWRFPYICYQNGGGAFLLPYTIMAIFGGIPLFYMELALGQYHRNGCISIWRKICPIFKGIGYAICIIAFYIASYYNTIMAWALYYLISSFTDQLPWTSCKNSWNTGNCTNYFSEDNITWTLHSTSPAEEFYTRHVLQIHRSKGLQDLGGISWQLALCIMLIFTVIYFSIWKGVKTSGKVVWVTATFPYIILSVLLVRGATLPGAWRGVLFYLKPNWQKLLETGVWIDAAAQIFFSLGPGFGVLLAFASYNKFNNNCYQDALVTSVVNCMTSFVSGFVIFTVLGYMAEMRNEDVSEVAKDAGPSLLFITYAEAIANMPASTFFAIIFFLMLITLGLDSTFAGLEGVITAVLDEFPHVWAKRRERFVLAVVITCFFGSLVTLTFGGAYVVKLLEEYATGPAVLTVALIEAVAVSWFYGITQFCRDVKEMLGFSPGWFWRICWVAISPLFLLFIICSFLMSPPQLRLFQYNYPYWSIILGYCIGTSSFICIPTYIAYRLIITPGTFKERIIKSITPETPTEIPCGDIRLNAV
Description: as §1

[5] = system: cellular uptake of norepinephrine; experiment: Cellular reuptake assay, [3H]norepinephrine; format: cell-based; conditions: 10 min, MDCK cell line
Description: as §2

Male Wistar rats = experiment: p-PCA-induced ejaculation in anesthetized rats (ejaculation-delaying effect); format: in vivo, rat; conditions: for Ratio: Number of responding animals/total animal number: 50 mg/kg oral in 1% HPMC, p-PCA 5 mg/kg i.p. 80 min later, observed 30 min; for Latency: Time to display the ejaculatory response: 50 mg/kg oral, p-PCA 5 mg/kg i.p., mean ± standard deviation of responding rats
Description: The compounds prepared in the above examples were evaluated to determine whether they have an effect of delaying ejaculation. The evaluation was carried out using an animal model according to a method described in Yonezawa et al., Life Sci. 2000, 67(25) p 3031-9. Male Wistar rats weighing 240-260 g were used. Each compound was suspended in 1% HPMC, and then administered orally to each animal. After 60 min, the animals were anesthetized and fixed. 20 min later, para-chloroamphetamine (p-PCA) was intraperitoneally administered in a dose of 5 mg/kg in order to induce ejaculation. […] An ejaculatory response was considered to be elicited when rhythmic contraction of bulbocavernosus muscles and semen discharge occurs. Six or more animals were used for each compound. A Fisher's […] test was performed for the comparison of the proportion of responding rats (ejaculated rats) to determine significance of difference between a treatment group and a vehicle control. The time to reach ejaculation was expressed as mean±standard deviation.
Each test compound was administered at a dose of 50 mg/kg. Ejaculation was elicited in all seven animals of a control group.

[6] = system: CHL (Chinese Hamster Lung) cell; experiment: Mutagenicity test: chromosome aberration test; format: cell-based; conditions: 75, 150, 300 μg/ml with metabolic activation; 20, 40, 80 μg/ml without
Description: as §3

[7] = Determination of half-lives of the compounds in rats (oral, plasma HPLC); format: in vivo; conditions: rat, male Sprague-Dawley rats, 10 mg/kg (text also says 5 mg/kg), 0.5% methylcellulose
Description: The half-lives of present compounds were determined as follows. Each compound was administered orally to male Sprague-Dawley rats weighing approximately 270 g at a dose of 10 mg/kg. 5 mg/kg of each compound was suspended in 0.5% methyl-cellulose and then administered to rats. Blood samples were collected 0.017, 0.083, 0.25, 0.5, 1, 2, 3, 5, 7 and 24 hours after administration, and centrifuged at 1,000 rpm for 3 min to separate plasma. The concentration of each compound in plasma was determined using high performance liquid chromatography, which was performed with a mobile phase of 10 mM ammonium formate (pH 3.0) and acetonitrile (50:50), an […] column (21×100 mm, 3 μm) and a flow rate of 0.2 ml/min.

5-HT1B receptor = molecular target: T4, 5-HT1B receptor (Rattus norvegicus, UniProt P28564); experiment: Radioligand competitive binding assay, [125I]Cyanopindolol; conditions: Wistar rat-derived cerebral cortical cells
T4 construct: Wistar rat-derived cerebral cortical cells; from tissue; host or cells: Wistar rat cerebral cortex
T4 sequence (P28564 whole entry): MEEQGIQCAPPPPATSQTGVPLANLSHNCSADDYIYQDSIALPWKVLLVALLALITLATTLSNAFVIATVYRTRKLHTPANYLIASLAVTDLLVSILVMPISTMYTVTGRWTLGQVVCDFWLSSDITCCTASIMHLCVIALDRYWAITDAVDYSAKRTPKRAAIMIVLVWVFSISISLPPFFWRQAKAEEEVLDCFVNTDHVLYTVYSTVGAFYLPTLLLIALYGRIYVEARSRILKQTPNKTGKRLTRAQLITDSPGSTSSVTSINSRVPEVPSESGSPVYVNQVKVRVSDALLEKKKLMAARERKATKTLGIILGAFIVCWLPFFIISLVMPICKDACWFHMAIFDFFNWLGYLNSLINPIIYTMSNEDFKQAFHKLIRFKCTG
Description: as §1

SMILES	Ratio: Number of responding animals/total animal number (Male Wistar rats)	Latency: Time to display the ejaculatory response (Male Wistar rats) [s]	other results
COc1ccc(C2(CCCN(C)C)OCc3cc(C#N)ccc32)cc1.O=C(O)C(=O)O (stereo not drawn) [Ex. 2, 1-{3-(dimethylamino)propyl}-1-(4-methoxyphenyl)-1,3-dihydro-5-isobenzofurancarbonitrile oxalate]	0/9	–	IC50 (5-HT2C receptor): 7.12 µM; IC50 [1]: 0.304 µM; IC50 (5HT1A receptor): 805 µM; minimum lethal dose (Sprague-Dawley (SD) rats; Intravenously, female SD rats): 70; minimum lethal dose (Sprague-Dawley (SD) rats; Intravenously, male SD rats): 70; minimum lethal dose (Sprague-Dawley (SD) rats; Orally, female SD rats): 1000; minimum lethal dose (Sprague-Dawley (SD) rats; Orally, male SD rats): 1000; Ames test result [2]: negative; IC50 [3]: 85.7 µM; IC50 [4]: 19.4 µM; IC50 (5-HT transporter): < 0.0001 µM; IC50 [5]: 36.5 µM; chromosome aberration test result [6]: negative; Tmax [7]: 19.8 min; half-life [7]: 76.8 min; IC50 (5-HT1B receptor): > 1000 µM
Cl.N#Cc1ccc2c(c1)COC2(CCCn1cccn1)c1ccc(F)cc1 (stereo not drawn) [Ex. 58, 1-(4-fluorophenyl)-1-{3-(pyrazole-1-yl)propyl}-1,3-dihydro-5-isobenzofurancarbonitrile hydrochloride]	4/9	850 ± 362	–
N#Cc1ccc2c(c1)COC2(CCn1cccn1)c1ccc(F)cc1 (stereo not drawn) [Ex. 59, 1-(4-fluorophenyl)-1-{2-(pyrazole-1-yl)ethyl}-1,3-dihydro-5-isobenzofurancarbonitrile]	3/7	954 ± 287	–
Cl.N#Cc1ccc2c(c1)COC2(CCn1cccn1)c1ccc(F)cc1 (stereo not drawn) [Ex. 60, 1-(4-fluorophenyl)-1-{2-(pyrazole-1-yl)ethyl}-1,3-dihydro-5-isobenzofurancarbonitrile hydrochloride]	4/9	1010 ± 400	–
N#Cc1ccc2c(c1)COC2(CCCn1ccnc1)c1ccc(Cl)cc1 (stereo not drawn) [Ex. 61, 1-(4-chlorophenyl)-1-{3-(imidazole-1-yl)propyl}-1,3-dihydro-5-isobenzofurancarbonitrile]	3/7	930 ± 247	–
Cl.N#Cc1ccc2c(c1)COC2(CCCn1ccnc1)c1ccc(Cl)cc1 (stereo not drawn) [Ex. 62, 1-(4-chlorophenyl)-1-{3-(imidazole-1-yl)propyl}-1,3-dihydro-5-isobenzofurancarbonitrile hydrochloride]	4/7	888 ± 284	–
N#Cc1ccc2c(c1)COC2(CCn1ccnc1)c1ccc(Cl)cc1 (stereo not drawn) [Ex. 63, 1-(4-chlorophenyl)-1-{2-(imidazole-1-yl)ethyl}-1,3-dihydro-5-isobenzofurancarbonitrile]	3/7	904 ± 307	–
Cl.N#Cc1ccc2c(c1)COC2(CCn1ccnc1)c1ccc(Cl)cc1 (stereo not drawn) [Ex. 64, 1-(4-chlorophenyl)-1-{2-(imidazole-1-yl)ethyl}-1,3-dihydro-5-isobenzofurancarbonitrile hydrochloride]	4/7	1032 ± 299	–
N#Cc1ccc2c(c1)COC2(CCCn1cccn1)c1ccc(Cl)cc1 (stereo not drawn) [Ex. 65, 1-(4-chlorophenyl)-1-{3-(pyrazole-1-yl)propyl}-1,3-dihydro-5-isobenzofurancarbonitrile]	5/9	801 ± 401	–
Cl.N#Cc1ccc2c(c1)COC2(CCCn1cccn1)c1ccc(Cl)cc1 (stereo not drawn) [Ex. 66, 1-(4-chlorophenyl)-1-{3-(pyrazole-1-yl)propyl}-1,3-dihydro-5-isobenzofurancarbonitrile hydrochloride]	4/7	960 ± 350	–
N#Cc1ccc2c(c1)COC2(CCn1cccn1)c1ccc(Cl)cc1 (stereo not drawn) [Ex. 67, 1-(4-chlorophenyl)-1-{2-(pyrazole-1-yl)ethyl}-1,3-dihydro-5-isobenzofurancarbonitrile]	3/7	853 ± 352	–
Cl.N#Cc1ccc2c(c1)COC2(CCn1cccn1)c1ccc(Cl)cc1 (stereo not drawn) [Ex. 68, 1-(4-chlorophenyl)-1-{2-(pyrazole-1-yl)ethyl}-1,3-dihydro-5-isobenzofurancarbonitrile hydrochloride]	4/9	908 ± 274	–
